Assay results as given in patent US20060229433A1, “Modified antiviral peptides with increased activity and cell membrane affinity” (priority 2003, published 2006).
Where “and” joins values, the source holds several entries; their conditions need not be identical. Equal entries are not always repeated. Peptide text beside a SMILES is read from it.

Columns and labels:
Format in all cases: cell-based
HIV-1 NL 4-3 [1] = assay: HIV-1 infection of C8166 cells (syncytia formation, p24 ELISA) with HIV-1 NL 4-3; design: key: ++, +, (+), (+)− and − represent decreasing numbers of syncitia formed; ++, +, (+), (+)− and − represent decreasing numbers of syncitia formed; ++, +, (+), (+)− and − represent decreasing numbers of syncitia formed; ++, +, (+), (+)− and − represent decreasing numbers of syncitia formed; ++, +, (+), (+)− and − represent decreasing numbers of syncitia formed; settings: Table 6
Summary of the method: (§1)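 C8166 T-cells were preincubated with peptide for 1 h at 37 °C, then exposed for 1 h to HIV-1 at 1000 TCID50/ml, washed, and cultured with peptide kept present throughout, with medium replaced at day 4. Infection was scored by syncytia formation and by supernatant p24 ELISA, with at least two runs in duplicate.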

HIV-1 NDK = assay: HIV-1 infection of C8166 cells (syncytia formation, p24 ELISA) with HIV-1 NDK; design: key to syncitia formed, Day 4 / syncitia formed, Day 5 / syncitia formed, Day 6 / syncitia formed, Day 7: ++, +, (+), (+)− and − represent decreasing numbers of syncitia formed; ++, +, (+), (+)− and − represent decreasing numbers of syncitia formed; ++, +, (+), (+)− and − represent decreasing numbers of syncitia formed; ++, +, (+), (+)− and − represent decreasing numbers of syncitia formed; ++, +, (+), (+)− and − represent decreasing numbers of syncitia formed; settings: for P 24: P 24 after Day 7
Description: HIV-1 NL 4-3 isolate (Adachi et al., 1986; Barré-Sinoussi et al., 1983) and highly cytopathic Zairian HIV-1 NDK isolate (Ellrodt et al., 1984) was propagated in permissive CEM cells (Nara et al., 1987). Uninfected CEM and C8166 (Salahuddin et al., 1983) were maintained in RPMI 1640 (R10) with ultraglutamine (cambrex, Vervier, Belgium), penicillin (100 U/ml), streptomycin (100 μg/ml), and 10% heat-inactivated fetal calf serum (Cambrex).
Samples of 3×10^5/100 μL C8166 cells were preincubated in 96-well microtiter plates in culture medium containing various concentrations of peptide. After a 1 h treatment at 37° C., 100 μl of diluted viral solution of HIV-1 was added. The cells were exposed to the virus for 1 h at 37° C. at a multiplicity of infection of 1000 TCID50 per ml. The cells were washed three times and cultured at 3×10^5/ml of R10 with the treatment in 24-well plates incubated at 37° C. C8166 culture medium was replaced at Day-4 post-infection. The treatment was permanent before virus adsorption, during virus adsorption and after infection. Assays on C8166 cells have been performed at least twice and in duplicate. Toxicity was evaluated by daily cell count and trypan-blue exclusion assay. Infection of C8166 T-cells with HIV-1 was assessed by virus-induced cytopathic effects (syncytia formation) and by quantification of cell free p24 viral protein in the culture supernatants. Measurements of HIV-1 p24^gag concentration in the culture supernatants were achieved by ELISA (ALLIANCE® HIV-1 p24 kit, Perkin Elmer, life sciences, USA).

HIV-1 NL 4-3 [2] = assay: HIV-1 infection of C8166 cells (syncytia formation, p24 ELISA) with HIV-1 NL 4-3; design: key to syncitia formed, Day 4 / syncitia formed, Day 5 / syncitia formed, Day 6 / syncitia formed, Day 7: ++, +, (+), (+)− and − represent decreasing numbers of syncitia formed; ++, +, (+), (+)− and − represent decreasing numbers of syncitia formed; ++, +, (+), (+)− and − represent decreasing numbers of syncitia formed; ++, +, (+), (+)− and − represent decreasing numbers of syncitia formed; ++, +, (+), (+)− and − represent decreasing numbers of syncitia formed
Summary of the method: as §1

[3] = C8166 cells, HIV-1 subtype B NL 4-3, Table 9, two lines = tested twice, 8 days apart

`NCC(=O)N1CCC[C@H]1C(=O)NCC(=O)O` [GPG, reference compound] (H-Gly-Pro-Gly-OH) was tested, and the “Day 4 syncitia formed” value (HIV-1 NL 4-3 [1]; 0.005 μM) was “−”, the “Day 5 syncitia formed” value (HIV-1 NL 4-3 [1]; 0.005 μM) was “+” and the “Day 6 syncitia formed” value (HIV-1 NL 4-3 [1]; 0.005 μM) was “++”. The “Day 4 syncitia formed” value (HIV-1 NL 4-3 [1]; 0.01 μM) was “−”, the “Day 5 syncitia formed” value (HIV-1 NL 4-3 [1]; 0.01 μM) was “(+)” and the “Day 6 syncitia formed” value (HIV-1 NL 4-3 [1]; 0.01 μM) was “+”. For the same molecule, the “Day 7 syncitia formed” value (HIV-1 NL 4-3 [1]; 0.01 μM) was “++”, the “Day 4 syncitia formed” value (HIV-1 NL 4-3 [1]; 0.05 μM) was “−” and the “Day 5 syncitia formed” value (HIV-1 NL 4-3 [1]; 0.05 μM) was “−”. The “Day 6 syncitia formed” value (HIV-1 NL 4-3 [1]; 0.05 μM) was “(+)”, the “Day 7 syncitia formed” value (HIV-1 NL 4-3 [1]; 0.05 μM) was “+” and the “Day 4 syncitia formed” value (HIV-1 NL 4-3 [1]; 0.1 μM) was “−”. For the same molecule, the “Day 5 syncitia formed” value (HIV-1 NL 4-3 [1]; 0.1 μM) was “−”, the “Day 6 syncitia formed” value (HIV-1 NL 4-3 [1]; 0.1 μM) was “−” and the “Day 7 syncitia formed” value (HIV-1 NL 4-3 [1]; 0.1 μM) was “+”. The “Day 4 syncitia formed” value (HIV-1 NL 4-3 [1]; 0.5 μM) was “−”, the “Day 5 syncitia formed” value (HIV-1 NL 4-3 [1]; 0.5 μM) was “−” and the “Day 6 syncitia formed” value (HIV-1 NL 4-3 [1]; 0.5 μM) was “−”. The “Day 7 syncitia formed” value (HIV-1 NL 4-3 [1]; 0.5 μM) was “−”, the “Day 4 syncitia formed” value (HIV-1 NL 4-3 [1]; 1 μM) was “−” and the “Day 5 syncitia formed” value (HIV-1 NL 4-3 [1]; 1 μM) was “−”. For the same molecule, the “Day 6 syncitia formed” value (HIV-1 NL 4-3 [1]; 1 μM) was “−”, the “Day 7 syncitia formed” value (HIV-1 NL 4-3 [1]; 1 μM) was “−” and the “Day 4 syncitia formed” value (HIV-1 NL 4-3 [1]; 5 μM) was “−”. The “Day 5 syncitia formed” value (HIV-1 NL 4-3 [1]; 5 μM) was “−”, the “Day 6 syncitia formed” value (HIV-1 NL 4-3 [1]; 5 μM) was “−” and the “Day 7 syncitia formed” value (HIV-1 NL 4-3 [1]; 5 μM) was “−”. For the same molecule, the “syncitia formed, Day 4” value (HIV-1 NDK; 0.005 μM) was “+”, the “syncitia formed, Day 5” value (HIV-1 NDK; 0.005 μM) was “+” and the “syncitia formed, Day 6” value (HIV-1 NDK; 0.005 μM) was “++”. For the same molecule, the “syncitia formed, Day 7” value (HIV-1 NDK; 0.005 μM) was “++”, the “P 24” value (HIV-1 NDK; 0.005 μM) was 23810 pg/mL and the “syncitia formed, Day 4” value (HIV-1 NDK; 0.01 μM) was “+”. For the same molecule, the “syncitia formed, Day 5” value (HIV-1 NDK; 0.01 μM) was “+”, the “syncitia formed, Day 6” value (HIV-1 NDK; 0.01 μM) was “++” and the “syncitia formed, Day 7” value (HIV-1 NDK; 0.01 μM) was “++”. For the same molecule, the “P 24” value (HIV-1 NDK; 0.01 μM) was 23810 pg/mL, the “syncitia formed, Day 4” value (HIV-1 NDK; 0.05 μM) was “(+)” and the “syncitia formed, Day 5” value (HIV-1 NDK; 0.05 μM) was “+”. For the same molecule, the “syncitia formed, Day 6” value (HIV-1 NDK; 0.05 μM) was “++”, the “syncitia formed, Day 7” value (HIV-1 NDK; 0.05 μM) was “++” and the “P 24” value (HIV-1 NDK; 0.05 μM) was 23810 pg/mL. For the same molecule, the “syncitia formed, Day 4” value (HIV-1 NDK; 0.1 μM) was “−”, the “syncitia formed, Day 5” value (HIV-1 NDK; 0.1 μM) was “+” and the “syncitia formed, Day 6” value (HIV-1 NDK; 0.1 μM) was “++”. The “syncitia formed, Day 7” value (HIV-1 NDK; 0.1 μM) was “++”, the “P 24” value (HIV-1 NDK; 0.1 μM) was 23810 pg/mL and the “syncitia formed, Day 4” value (HIV-1 NDK; 0.5 μM) was “−”. The “syncitia formed, Day 5” value (HIV-1 NDK; 0.5 μM) was “+”, the “syncitia formed, Day 6” value (HIV-1 NDK; 0.5 μM) was “++” and the “syncitia formed, Day 7” value (HIV-1 NDK; 0.5 μM) was “++”. The “P 24” value (HIV-1 NDK; 0.5 μM) was 21110 pg/mL and 23810 pg/mL, the “syncitia formed, Day 4” value (HIV-1 NDK; 1 μM) was “−” and the “syncitia formed, Day 5” value (HIV-1 NDK; 1 μM) was “(+)”. For the same molecule, the “syncitia formed, Day 6” value (HIV-1 NDK; 1 μM) was “+”, the “syncitia formed, Day 7” value (HIV-1 NDK; 1 μM) was “+” and the “P 24” value (HIV-1 NDK; 1 μM) was 3810 pg/mL and 2507 pg/mL. The “syncitia formed, Day 4” value (HIV-1 NDK; 5 μM) was “−”, the “syncitia formed, Day 5” value (HIV-1 NDK; 5 μM) was “−” and the “syncitia formed, Day 6” value (HIV-1 NDK; 5 μM) was “−”. For the same molecule, the “syncitia formed, Day 7” value (HIV-1 NDK; 5 μM) was “+”, the “P 24” value (HIV-1 NDK; 5 μM) was 2733 pg/mL and 2400 pg/mL and the IC50 (HIV-1 NDK; HIV 1 NDK, Table 10) was 500 nM. For the same molecule, the IC100 (HIV-1 NDK; HIV 1 NDK, Table 10) was greater than 5 µM, the “Day 7 syncitia formed” value (HIV-1 NL 4-3 [2]; 0.005 μM, Table 6) was “++/T” and the “syncitia formed, Day 4” value (HIV-1 NL 4-3 [2]; 0.01 μM, C8166 cells) was “(+)”. For the same molecule, the “syncitia formed, Day 5” value (HIV-1 NL 4-3 [2]; 0.01 μM, C8166 cells) was “(+)”, the “syncitia formed, Day 6” value (HIV-1 NL 4-3 [2]; 0.01 μM, C8166 cells) was “+” and the “syncitia formed, Day 7” value (HIV-1 NL 4-3 [2]; 0.01 μM, Day 7, C8166 cells) was “++”. For the same molecule, the “P 24” value (HIV-1 NL 4-3 [2]; 0.01 μM, P 24 after Day 7, C8166 cells) was 9810 pg/mL and 15810 pg/mL, the “syncitia formed, Day 4” value (HIV-1 NL 4-3 [2]; 0.1 μM, C8166 cells) was “−” and the “syncitia formed, Day 5” value (HIV-1 NL 4-3 [2]; 0.1 μM, C8166 cells) was “−”. The “syncitia formed, Day 6” value (HIV-1 NL 4-3 [2]; 0.1 μM, C8166 cells) was “(+)”, the “syncitia formed, Day 7” value (HIV-1 NL 4-3 [2]; 0.1 μM, Day 7, C8166 cells) was “+” and the “P 24” value (HIV-1 NL 4-3 [2]; 0.1 μM, P 24 after Day 7, C8166 cells) was 807 pg/mL and 1506 pg/mL. For the same molecule, the “syncitia formed, Day 4” value (HIV-1 NL 4-3 [2]; 0.5 μM, C8166 cells) was “−”, the “syncitia formed, Day 5” value (HIV-1 NL 4-3 [2]; 0.5 μM, C8166 cells) was “−” and the “syncitia formed, Day 6” value (HIV-1 NL 4-3 [2]; 0.5 μM, C8166 cells) was “− and (+)”. For the same molecule, the “syncitia formed, Day 7” value (HIV-1 NL 4-3 [2]; 0.5 μM, Day 7, C8166 cells) was “(+) and +”, the “syncitia formed, Day 4” value (HIV-1 NL 4-3 [2]; 1 μM, C8166 cells) was “−” and the “syncitia formed, Day 5” value (HIV-1 NL 4-3 [2]; 1 μM, C8166 cells) was “−”. The “syncitia formed, Day 6” value (HIV-1 NL 4-3 [2]; 1 μM, C8166 cells) was “−”, the “syncitia formed, Day 7” value (HIV-1 NL 4-3 [2]; 1 μM, Day 7, C8166 cells) was “(+)” and the “P 24” value (HIV-1 NL 4-3 [2]; 1 μM, P 24 after Day 7, C8166 cells) was 62 pg/mL and 42 pg/mL. The “syncitia formed, Day 4” value (HIV-1 NL 4-3 [2]; 5 μM, C8166 cells) was “−”, the “syncitia formed, Day 5” value (HIV-1 NL 4-3 [2]; 5 μM, C8166 cells) was “−” and the “syncitia formed, Day 6” value (HIV-1 NL 4-3 [2]; 5 μM, C8166 cells) was “−”. For the same molecule, the “syncitia formed, Day 7” value (HIV-1 NL 4-3 [2]; 5 μM, Day 7, C8166 cells) was “−”, the IC50 (HIV-1 NL 4-3 [2]; [3]) was 10 nM and the IC100 (HIV-1 NL 4-3 [2]; [3]) was 5 µM. The “P 24” value (HIV-1 NL 4-3 [2]; Day 7, 0.005 μM, Table 6) was 23810 pg/mL, the “P 24” value (HIV-1 NL 4-3 [2]; Day 7, 0.01 μM, Table 6) was 13850 pg/mL and 11756 pg/mL and the “P 24” value (HIV-1 NL 4-3 [2]; Day 7, 0.05 μM, Table 6) was 7330 pg/mL and 9810 pg/mL. For the same molecule, the “P 24” value (HIV-1 NL 4-3 [2]; Day 7, 1 μM, Table 6) was 5.4 pg/mL and 3.8 pg/mL.
